pIC50: −log10 of the molar value.
Tests used:
ADAM10 = target: T1, ADAM10 (Homo sapiens, UniProt O14672); test: ADAM10 enzyme assay with glycosylated substrate DM2; assay type: biochemical; settings: for activity against ADAM10 (in words): SAR discussion
T1 construct: purchased R & D Systems (Minneapolis, MN, USA)
T1 sequence (O14672 214-748): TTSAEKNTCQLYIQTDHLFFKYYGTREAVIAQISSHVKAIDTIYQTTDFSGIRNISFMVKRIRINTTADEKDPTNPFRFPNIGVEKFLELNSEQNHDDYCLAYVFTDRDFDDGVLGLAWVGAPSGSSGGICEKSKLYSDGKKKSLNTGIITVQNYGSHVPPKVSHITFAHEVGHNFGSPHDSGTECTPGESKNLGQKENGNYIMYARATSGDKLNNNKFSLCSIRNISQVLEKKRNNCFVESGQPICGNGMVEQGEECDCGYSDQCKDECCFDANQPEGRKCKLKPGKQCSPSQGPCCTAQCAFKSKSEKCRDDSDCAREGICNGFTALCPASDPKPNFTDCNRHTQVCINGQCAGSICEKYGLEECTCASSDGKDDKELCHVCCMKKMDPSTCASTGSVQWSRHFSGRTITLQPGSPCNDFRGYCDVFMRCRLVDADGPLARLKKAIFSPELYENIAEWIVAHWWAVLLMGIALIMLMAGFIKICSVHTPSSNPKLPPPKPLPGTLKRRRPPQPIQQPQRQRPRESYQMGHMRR
Description: (§1) ADAM10 and ADAM17 assays. Both assays were performed as published previously by us. Briefly, both assays followed the same general protocol. In total, 5 μL of the 2× enzyme solution (20 nM) in an assay buffer (10 mM Hepes, 0.001% Brij-35, pH 7.5) were added to solid bottom black 384 plates (Nunc, ThermoFisher, Waltham, MA, USA, cat# 264705). Next, test compounds and pharmacological controls were added to the corresponding wells using a 384-pin tool device (V & P Scientific, San Diego, CA, USA). After 60 min of incubation at RT, the reactions were started via the addition of 5 μL of the 2× solutions of glycosylated substrate DM2 (20 μM). The reactions were incubated at RT for 2 h, after which the fluorescence was measured using a Biotek H1 multimode microplate imager (λexcitation = 360 nm, λemission = 460 nm). IC50 values were calculated by fitting normalized data to the sigmoidal log vs. the response equation utilizing a non-linear regression analysis from GraphPad Prizm 9.

ADAM17 = target: T2, ADAM17 (Homo sapiens, UniProt P78536); test: ADAM17 enzyme assay with glycosylated substrate DM2; assay type: biochemical; settings: for selectivity against ADAM17 (in words): ADAM10 vs ADAM17
T2 construct: purchased R & D Systems (Minneapolis, MN, USA)
T2 sequence (P78536 215-824, species assumed): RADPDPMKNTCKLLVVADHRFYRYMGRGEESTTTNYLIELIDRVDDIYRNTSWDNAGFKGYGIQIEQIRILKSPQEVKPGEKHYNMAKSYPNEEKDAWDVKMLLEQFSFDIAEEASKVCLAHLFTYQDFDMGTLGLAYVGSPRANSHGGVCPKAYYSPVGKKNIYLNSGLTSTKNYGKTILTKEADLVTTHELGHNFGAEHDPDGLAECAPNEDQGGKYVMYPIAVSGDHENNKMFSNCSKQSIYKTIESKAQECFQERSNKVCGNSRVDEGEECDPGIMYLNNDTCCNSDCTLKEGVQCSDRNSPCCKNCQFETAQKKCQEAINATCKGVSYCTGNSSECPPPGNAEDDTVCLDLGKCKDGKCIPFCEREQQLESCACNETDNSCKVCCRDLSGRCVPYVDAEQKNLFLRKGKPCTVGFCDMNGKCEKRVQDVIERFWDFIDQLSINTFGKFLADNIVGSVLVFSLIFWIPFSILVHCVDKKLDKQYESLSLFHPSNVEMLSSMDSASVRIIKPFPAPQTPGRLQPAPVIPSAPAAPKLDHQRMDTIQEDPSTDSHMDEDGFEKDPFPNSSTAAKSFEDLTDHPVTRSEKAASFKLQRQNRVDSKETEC
Description: as §1

[1] = tested on: articular joints affected by RA; test: Histopathology (H & E) of arthritic joint, CIA mice; assay type: in vivo, C57 BL/6 mice; settings: indomethacin 2.5 mg/kg/day
Description: (§2) The sample size for therapeutic evaluation was calculated using power analysis based on experimental data from similar studies. In a two-sided test and setting the α value at 0.05 and desired power at 0.95, the sample size turned out to be 5 per group. We also expected deaths during the experiments; therefore, we used the formula Nt = N/1-q, where Nt is the number of mice initially used, N is the number required at the end of the study, and q is the proportion of attrition, which is generally 10%. Thus, at the end of the study period, we expected to have data from at least […] per group, which is enough to attain statistical significance if it exists. Data were analyzed using a one-way ANOVA followed by Dunnett’s test compared with the vehicle control. At the end of the study, the mice were anesthetized and sacrificed using CO2 euthanasia. The hind paws of the mice were subjected to a histopathological examination, and the serum was analyzed for CRP, TNF-α, IL-6, and IL-10, as described in the below sections. Histology. Limbs from euthanized animals were preserved in buffered formalin, decalcified, embedded, sectioned, and stained with hematoxylin and eosin (H & E). Microscopic images were acquired using the Lx 400 microscope (Labomed, Fremont, CA, USA).

[2] = tested on: collagen-induced arthritis (CIA) model; test: CIA mouse model: clinical arthritis score and paw swelling; assay type: in vivo, C57 BL/6 mice; settings: indomethacin 2.5 mg/kg oral, scale 0–4
Description: In vivo efficacy in the CIA mouse model. All animal studies were conducted in accordance with NSU IACUC guidelines. Study protocol #2021.04.DM5 was approved by NSU IACUC before the commencement of the studies. CID 3117694 and indomethacin were ground with a small amount of the dispersing agent (0.5% HPMC (3 cP)–0.5% Tween 80) using a mortar and a pestle and mixed repeatedly to form a smooth paste. The paste was moved to a graduated cylinder and filled up to the required volume with the dispersing agent to form a suspension, as described elsewhere. The test compound (10, 30, and 50 mg/kg) and indomethacin (2.5 mg/kg) were administered with a mouse gavage needle (gauge no: 18, BD, catalog number: 653902) through the oral route as a suspension with a 5 mL/kg dose volume (from day 0 to day 28). In this study, 6–8-week-old C57 BL/6 mice from Charles River (male and female) were used. Animals were randomly assigned to one of the following six groups: (1) normal (non-RA control), (2) RA control untreated, (3) RA control treated with 2.5 mg/kg/day indomethacin, and 3 test groups (CID 3117694 (10 mg/kg/day, 30 mg/kg/day, and 50 mg/kg/day)) to provide an estimate for the lead compound’s efficacy range. Each group had three males and three females assigned to the control for gender-based differences. Arthritis was induced in the right paws of the mice under anaesthesia. The left paw of the mice was used as a control. A total of 10 µL collagen from bovine (type II collagen) nasal septum emulsion (2 mg/mL) was injected into the right knee joint with a glass Hamilton syringe and 25 G needles for intraarticular (i.a.) injection, followed by a total of 100 µL Complete Freund’s adjuvant (CFA) emulsion was injected at the back of mice using a syringe with 25 G needles subcutaneously (s.c.). On day 14 after the first injection, the mice were injected, i.e., with 10 µL of collagen from the bovine nasal septum ([…]) and s.c. with a 100 µL CFA emulsion for a boost injection. Arthritis progression was monitored using a clinical arthritis scoring system (0–4), and paw swelling was measured with the help of a plethysmograph on days 0, 14, 21, and 28 after the induction of arthritis. […] After the administration of a primary dose of collagen from the bovine nasal septum, CFA scoring was assessed. Measurements were taken on days 0, 14, 21, and 28 after the induction of arthritis in induced paws (right paw) and non-arthritis paws (left paw). CID 3117694 (10 mg/kg/day, 30 mg/kg/day, and 50 mg/kg/day) and pharmacological control (indomethacin 2.5 mg/kg/day) treatment were given every day for 28 days beginning from day 1 via oral gavage in hydroxy-propyl-methyl cellulose (HPMC) suspension.

TNFα = test: RA serum marker ELISA, TNFα, CIA mice; assay type: in vivo, C57 BL/6 mice; settings: CID 3117694 50 mg/kg/day; indomethacin 2.5 mg/kg
Description: as §2, with “sections.” for “sections. Histology. Limbs from euthanized animals were preserved in buffered formalin, decalcified, embedded, sectioned, and stained with hematoxylin and eosin (H & E). Microscopic images were acquired using the Lx 400 microscope (Labomed, Fremont, CA, USA).”
(§3) RA serum marker analysis. Blood was collected from the tail vein, and 100 µL was used for the assays. All assays were conducted using the manufacturer’s instructions for the respective assay kits. The following assay kits were purchased: Mouse TNF-α GENLISA™ ELISA (Krishgen BioSystems cat#KB2145, Mumbai, India), Mouse IL-10 GENLISA™ ELISA (Krishgen BioSystems cat#KB2072), Mouse hsC-Reactive Protein, hs-CRP GENLISA™ ELISA (Krishgen BioSystems cat#KLM0318), Mouse IL-6 GENLISA™ ELISA (Krishgen BioSystems cat#KB2068).

C-reactive protein (CRP) = test: RA serum marker ELISA, CRP, CIA mice; assay type: in vivo, C57 BL/6 mice; settings: CID 3117694 50 mg/kg/day; indomethacin 2.5 mg/kg
Description: as §2, with “sections.” for “sections. Histology. Limbs from euthanized animals were preserved in buffered formalin, decalcified, embedded, sectioned, and stained with hematoxylin and eosin (H & E). Microscopic images were acquired using the Lx 400 microscope (Labomed, Fremont, CA, USA).”
as §3

IL-10 = test: RA serum marker ELISA, IL-10, CIA mice; assay type: in vivo, C57 BL/6 mice; settings: CID 3117694 50 mg/kg/day; indomethacin 2.5 mg/kg
Description: as §2, with “sections.” for “sections. Histology. Limbs from euthanized animals were preserved in buffered formalin, decalcified, embedded, sectioned, and stained with hematoxylin and eosin (H & E). Microscopic images were acquired using the Lx 400 microscope (Labomed, Fremont, CA, USA).”
as §3

IL-6 = test: RA serum marker ELISA, IL-6, CIA mice; assay type: in vivo, C57 BL/6 mice; settings: CID 3117694 50 mg/kg/day; indomethacin 2.5 mg/kg
Description: as §2, with “sections.” for “sections. Histology. Limbs from euthanized animals were preserved in buffered formalin, decalcified, embedded, sectioned, and stained with hematoxylin and eosin (H & E). Microscopic images were acquired using the Lx 400 microscope (Labomed, Fremont, CA, USA).”
as §3

| Compound | pIC50 (ADAM10) | pIC50 (ADAM17) | activity against ADAM10 (in words) (ADAM10) | other results |
| --- | --- | --- | --- | --- |
| COc1ccc2c(c1)c(CC(=O)O)c(C)n2C(=O)c1ccc(Cl)cc1 [indomethacin, reference compound] |  |  |  | histopathological findings (in words) [1]: presence of inflammation and hyperplasia; histopathological findings (in words) ([1]; listed as Indomethacin): only residual inflammation and hyperplasia; disease score ([2]; day 21): 2; disease score ([2]; day 28): 1; TNFα blood level vs healthy control (TNFα): the same as that of the healthy controls; CRP blood level vs healthy control (C-reactive protein (CRP)): the same as that of the healthy controls; IL-10 blood level vs healthy control (IL-10): the same as that of the healthy controls; IL-6 blood level vs healthy control (IL-6): the same as that of the healthy controls |
| Cc1ccc(NC(=O)C(=O)NNC(=O)c2ccc(C(C)(C)C)cc2)cc1Cl [CID 2213247] | < 4.00 | < 4.00 |  |  |
| COc1ccccc1NC(=O)C(=O)NNC(=O)c1ccccc1Cl [CID 2273473] | 4.48 | 4.48 | reduced affinity | selectivity against ADAM17 (in words) (ADAM17): no selectivity |
| Cc1ccccc1C(=O)NNC(=O)C(=O)Nc1cccc2ccccc12 [CID 2841765] | 5.55 | 5.70 | retrieved the activity | selectivity against ADAM17 (in words) (ADAM17): selectivity against ADAM17 was lost |

Continued, in another order:

| pIC50 (ADAM10) | pIC50 (ADAM17) | activity against ADAM10 (in words) (ADAM10) | Compound | other results |
| --- | --- | --- | --- | --- |
| < 4.00 | < 4.00 |  | Cc1c(Cl)cccc1NC(=O)C(=O)NNC(=O)c1ccc(C(C)(C)C)cc1 [CID 2218294] |  |
| < 4.00 | < 4.00 |  | CCc1ccc(NC(=O)C(=O)NNC(=O)c2ccc(C(C)(C)C)cc2)cc1 [CID 2113284] |  |
| < 4.00 | < 4.00 | did not rescue the activity | Cc1ccccc1NC(=O)C(=O)NNC(=O)c1ccc(Cl)cc1 [CID 2869359] |  |

From paper PMC10819767, “An ADAM10 Exosite Inhibitor Is Efficacious in an In Vivo Collagen-Induced Arthritis Model” (Pharmaceuticals, 2024)
